Tests used:
[1] = heat capacity at constant pressure per volume; xn = mol fraction of the nth substance listed; conditions: 102.6 kPa, Liquid, DSC, x1 = 0.118
[2] = refractive index (other wavelength) (dimensionless); xn = mol fraction of the nth substance listed; conditions: 100 kPa, Liquid, Wavelength=632.8 nm, minimum deviation angle method

CCCC[n+]1ccccc1.F[B-](F)(F)F [1-butylpyridinium tetrafluoroborate] + CCO
[1]
Conditions | heat capacity [J/K/m3]
291.64 K | 2400000
291.84 K | 2413000
292.04 K | 2409000
292.24 K | 2412000
292.44 K | 2447000
292.64 K | 2446000
292.84 K | 2430000
293.04 K | 2446000
293.24 K | 2456000
293.44 K | 2452000
293.64 K | 2454000
293.84 K | 2466000
294.04 K | 2479000
294.24 K | 2512000
294.44 K | 2465000
294.64 K | 2512000
294.84 K | 2537000
295.04 K | 2539000
295.24 K | 2557000
295.44 K | 2564000
295.64 K | 2619000
295.84 K | 2578000
296.04 K | 2655000
296.24 K | 2606000
296.44 K | 2659000
296.64 K | 2847000
296.86 K | 2825000
297.04 K | 2338000
297.24 K | 2271000
297.44 K | 2220000
297.64 K | 2228000
297.84 K | 2203000
298.04 K | 2201000
298.24 K | 2198000
298.44 K | 2180000
298.64 K | 2187000
298.84 K | 2145000
299.04 K | 2169000
299.24 K | 2164000
299.44 K | 2169000
299.64 K | 2152000
299.84 K | 2153000
300.04 K | 2150000
300.24 K | 2151000
300.44 K | 2144000
300.64 K | 2130000
300.84 K | 2137000
301.24 K | 2132000
301.44 K | 2139000
301.64 K | 2140000
301.84 K | 2124000
302.04 K | 2130000
302.24 K | 2117000
302.44 K | 2124000
302.64 K | 2130000
302.84 K | 2122000
303.04 K | 2129000
303.24 K | 2131000
303.44 K | 2121000
303.63 K | 2121000
303.83 K | 2127000
304.04 K | 2126000
304.24 K | 2122000
304.44 K | 2130000
304.63 K | 2120000
304.83 K | 2123000
305.04 K | 2117000
305.24 K | 2113000
305.44 K | 2107000
305.63 K | 2112000
306.08 K | 2110000
306.51 K | 2108000
306.95 K | 2108000
307.39 K | 2107000
307.83 K | 2106000
308.26 K | 2106000
308.7 K | 2105000
309.14 K | 2104000
309.58 K | 2104000
310.02 K | 2104000
310.45 K | 2104000
310.89 K | 2105000
311.33 K | 2103000
311.77 K | 2102000
312.2 K | 2102000
312.64 K | 2102000
313.08 K | 2103000
313.52 K | 2101000
313.96 K | 2103000
314.39 K | 2101000
314.83 K | 2103000
315.27 K | 2102000
315.71 K | 2103000
316.14 K | 2102000
316.58 K | 2103000
317.02 K | 2103000
317.46 K | 2103000
317.89 K | 2105000
318.33 K | 2104000
318.77 K | 2106000
319.21 K | 2105000
319.65 K | 2107000
320.08 K | 2107000
320.52 K | 2108000
320.96 K | 2109000
321.4 K | 2109000
321.84 K | 2109000
322.27 K | 2110000
322.71 K | 2111000
323.15 K | 2110000

[2]
Conditions | refractive index
281.73 K, x1 = 1 | 1.4481
282.78 K, x1 = 1 | 1.4478
284.05 K, x1 = 0.518 | 1.4307
284.14 K, x1 = 1 | 1.4475
284.68 K, x1 = 0.394 | 1.4224
285.33 K, x1 = 0.518 | 1.4304
285.74 K, x1 = 1 | 1.4471
286.42 K, x1 = 0.394 | 1.4219
286.94 K, x1 = 1 | 1.4468
287.46 K, x1 = 0.02 | 1.3684
287.51 K, x1 = 0.518 | 1.4298
287.68 K, x1 = 0.394 | 1.4215
288.24 K, x1 = 1 | 1.4464
288.69 K, x1 = 0.518 | 1.4295
288.71 K, x1 = 0.02 | 1.3679
289.37 K, x1 = 0.394 | 1.4211
289.38 K, x1 = 1 | 1.4461
289.82 K, x1 = 0.02 | 1.3675
290.14 K, x1 = 0.518 | 1.429
290.31 K, x1 = 0.394 | 1.4207
290.37 K, x1 = 1 | 1.4458
290.46 K, x1 = 0.313 | 1.414
291.26 K, x1 = 0.02 | 1.3669
291.42 K, x1 = 0.394 | 1.4204
291.42 K, x1 = 0.518 | 1.4287
292.08 K, x1 = 0.313 | 1.4134
292.15 K, x1 = 1 | 1.4454
292.64 K, x1 = 0.02 | 1.3663
293.1 K, x1 = 0.313 | 1.4131
293.41 K, x1 = 1 | 1.4451
294.23 K, x1 = 0.313 | 1.4128
294.38 K, x1 = 0.02 | 1.3657
295 K, x1 = 1 | 1.4446
295.32 K, x1 = 0.313 | 1.4124
296.19 K, x1 = 0.258 | 1.4062
296.35 K, x1 = 0.199 | 1.3993
296.35 K, x1 = 0.313 | 1.4121
296.89 K, x1 = 1 | 1.444
296.98 K, x1 = 0.06 | 1.3745
296.98 K, x1 = 0.142 | 1.3902
297.25 K, x1 = 0.095 | 1.3817
297.52 K, x1 = 0.258 | 1.4056
298.06 K, x1 = 0.142 | 1.3899
298.21 K, x1 = 0.06 | 1.374
298.51 K, x1 = 0.199 | 1.3986
298.56 K, x1 = 0.095 | 1.3813
298.9 K, x1 = 0.258 | 1.4052
299.34 K, x1 = 0.142 | 1.3895
299.43 K, x1 = 0.06 | 1.3736
299.58 K, x1 = 0.199 | 1.3982
299.67 K, x1 = 0.095 | 1.3809
299.98 K, x1 = 0.258 | 1.4048
300.34 K, x1 = 0.142 | 1.3892
300.79 K, x1 = 0.095 | 1.3805
300.89 K, x1 = 0.06 | 1.3731
300.95 K, x1 = 0.258 | 1.4046
301.1 K, x1 = 0.199 | 1.3977
301.77 K, x1 = 0.095 | 1.3802
301.77 K, x1 = 0.142 | 1.3886
301.92 K, x1 = 0.258 | 1.4043
302.08 K, x1 = 0.06 | 1.3726
302.16 K, x1 = 0.199 | 1.3974
302.93 K, x1 = 0.095 | 1.3798
302.94 K, x1 = 0.142 | 1.3883
303.3 K, x1 = 0.199 | 1.397
303.31 K, x1 = 0.06 | 1.3722
